Assay results taken from patent publication US12358904B2, “Inhibitors of TYK2” (Atomwise Inc., priority 2023, dated 2025).

How the values were obtained:
IL-12/pSTAT4 = test: IL-12 induced pSTAT4 assay in NK-92 cells; type: cell-based; conditions: Homo sapiens, NK92, IL-12 stimulation, read-out: Cellular potency (IL-12/pSTAT4)
Description: The following example describes the IL-12 induced pSTAT4 assay used to determine the cellular potency (IL-12/pSTAT4) of the TYK2 inhibitors.
NK-92 cells (human natural killer lymphoma cell line) were cultured in MEM α, nucleosides (Life Technologies, 22571020) 12.5% heat inactivated FBS (Dominique Dutscher, S1810), 12.5% heat inactivated Horse serum (Life Technologies, 26050088) and 1% Penicillin-Streptomycin (Life Technologies, 15140122), 5 ng/mL human IL-2 (R&D systems, 202-II/CF), 0.2 mM inositol (Sigma, PHR1351 lot LRAC4118), 0.1 mM β-mercaptoethanol (Life Technologies, 31350010), and 0.02 mM folic acid (Sigma, F8758).
NK-92 cells were starved overnight in starvation medium (Opti-MEM (ThermoFisher, 11058-021), 10% charcoal stripped FBS (ThermoFisher 12676-029), and 1% Penicillin (100U/ml)-Streptomycin (100 μg/ml) (ThermoFisher, ref 15140122)), then plated in a 96-well tissue culture plate (20K cells/well) prior to pre-incubation with test compounds (Final Concentration [nM] 1000 to 0.05) for 30 minutes at 37° C. Cells were stimulated with IL-12 (Final Concentration l0 ng/ml) for 30 minutes at 37° C., and terminated by addition of lysis buffer (MSD K150PAD-2). pSTAT4 (Tyr693) was detected using the Mesa Scale Discovery platform (MSD K150PAD-2), according to manufacturer's instruction. Briefly, cell lysates were added to pre-blocked plates and incubated for 1 hour at room temperature. Plates were washed and incubated with detection antibody for 1 hour at room temperature. Plates were washed and Read Buffer was added prior to measurement on the MSD (1300 MSD Quickplex SQ 120).

TYK2-JH2 = target: T1, TYK2-JH2 (Homo sapiens, UniProt P29597); test: TYK2-JH2 HTRF binding assay (ligand efficiency); conditions: calculated from IC50 of the TYK-JH2 binding assay (Equation 1)
T1 construct: TYK JH2 enzyme mix (ChemPartnec CP20210818A-BV); purchased ChemPartner CP20210818A-BV
Description: The following example describes the TYK2-JH2 HTRF binding assay used to determine the ligand efficiency of the TYK2 inhibitors.
To calculate ligand efficiency, Equation 1 is applied:
[formula] in which IC50 comes from the binding assay used to determine compound potency.
TYK JH2 enzyme mix (ChemPartnec CP20210818A-BV), tracer (ChemPartnec CP-0029472-051) and mAb Anti-6HIS Tb cryptate Gold (Cisbio: Cat No. 61H12TLA) mix were prepared in assay buffer (10 mM MgCl2, 20 mM HEPES pH 7.5, 0.01% Triton X-100, 1 mM DTT). Compounds diluted in DMSO (Final Concentrations 0.1 to 0.000005 [μM]) and enzyme mix (0.5 nM Final Concentration) were added to 384 well plates, briefly centrifuged and incubated at room temperature for 10 minutes. After incubation, tracer mix (Tracer-35 nM final concentration); (Mab Anti-6HIS Tb cryptate Gold-0.5× final)) was added, briefly centrifuged then incubate at room temperature 60 minutes. After incubation, plates were read by Envision TR-FRET (Ex340/Em495/520) protocol (PerkinElmer-Envision 2104 multilabel plate reader).

T1 sequence (P29597 589-875 limits assumed): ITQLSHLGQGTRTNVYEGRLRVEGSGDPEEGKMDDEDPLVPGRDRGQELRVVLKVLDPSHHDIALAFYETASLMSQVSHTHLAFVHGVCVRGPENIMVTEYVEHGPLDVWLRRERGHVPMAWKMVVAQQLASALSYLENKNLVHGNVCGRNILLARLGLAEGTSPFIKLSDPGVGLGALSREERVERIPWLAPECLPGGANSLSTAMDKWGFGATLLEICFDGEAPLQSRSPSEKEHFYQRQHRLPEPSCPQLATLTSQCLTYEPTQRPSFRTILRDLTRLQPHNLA

Row | Compound | IC50 (IL-12/pSTAT4) [nM] | Ligand Efficiency (TYK2-JH2)
1 | CS(=O)(=O)c1cccnc1Nc1cc(Nc2ncccc2F)ncn1 [Compound 64, N^4-(3-fluoropyridin-2-yl)-N^6-(3-(methylsulfonyl)154yridine-2-yl) pyrimidine-4,6-diamine] | > 1000 | ††† (†††: >0.39)
2 | C[C@H](c1ccc(Nc2cc(Nc3ncccc3S(C)(=O)=O)ncn2)nc1)N1CCC2(CCOCC2)C1 [Compound 30, I-N^4-(5-(1-(8-oxa-2-azaspiro[4.5]decan-2-yl)ethyl)112yridine-2-yl)-N^6-(3-(methylsulfonyl)112yridine-2-yl)pyrimidine-4,6-diamine] | < 100 | †† (††: 0.37-0.39)
3 | CS(=O)(=O)c1cccnc1Nc1cc(Nc2ccc(N3CCN(C4CC4)CC3)cn2)ncn1 [Compound 7, N^4-(5-(4-cyclopropylpipeiazin-1-yl) 83yridine-2-yl)-N^6-(3-(methylsulfonyl)83yridine-2-yl)pyrimidine-4,6-diamine] | < 100 | ††† (†††: >0.39)
4 | CC(C)(c1ccc(Nc2cc(Nc3ncccc3S(C)(=O)=O)ncn2)nc1)N1CC2(CCOCC2)C1 [Compound 33, N^4-(5-(2-(7-oxa-2-azaspiro[3.5]nonan-2-yl)propan-2-yl)118yridine-2-yl)-N^6-(3-(methylsulfonyl)118yridine-2-yl)pyrimidine-4,6-diamine] | < 100 | †† (††: 0.37-0.39)
5 | C[C@H]1CN(C)CCN1c1ccc(Nc2cc(Nc3ncccc3S(C)(=O)=O)ncn2)nc1 [Compound 20, (S)—N^4-(5-(2,4-dimethylpiperazin-1-yl)101yridine-2-yl)-N^6-(3-(methylsulfonyl)101yridine-2-yl)pyrimidine-4,6-diamine] | < 100 | ††† (†††: >0.39)
6 | C[C@@H](c1ccc(Nc2cc(Nc3ncccc3S(C)(=O)=O)ncn2)nc1)N1CCCC12CCOCC2 [Compound 29, (S)—N^4-(5-(1-(8-oxa-1-azaspiro[4.5]decan-1-yl)ethyl)111yridine-2-yl)-N^6-(3-(methylsulfonyl)111yridine-2-yl)pyrimidine-4,6-diamine] | < 100 | †† (††: 0.37-0.39)
7 | Cc1cccc(Nc2cc(Nc3cccnc3C(N)=O)ncn2)n1 [Compound 50, 3-((6-((6-methylpyridin-2-yl)amino)pyrimidin-4-yl)amino) picolinamide] | 100 to 1000 | ††† (†††: >0.39)
8 | Cc1cccc(Nc2cc(Nc3ncccc3CS(C)(=O)=O)ncn2)n1 [Compound 71, N^4-(6-methylpyridin-2-yl)-N^6-(3-((methylsulfonyl)methyl) 162yridine-2-yl)pyrimidine-4,6-diamine] | > 1000 | ††† (†††: >0.39)
9 | C[C@H](NC1COC1)c1ccc(Nc2cc(Nc3ccccc3S(C)(=O)=O)ncn2)nc1 [Compound 40, I-N^4-(2-(methylsulfonyl)phenyl)-N^6-(5-(1-(oxetan-3-ylamino)ethyl)128yridine-2-yl)pyrimidine-4,6-diamine] | 100 to 1000 | ††† (†††: >0.39)
10 | C[C@@H](c1ccc(Nc2cc(Nc3ncc(Cl)cc3S(C)(=O)=O)ncn2)nc1)N1CC2(COC2)C1 [Compound 14, (S)—N^4-(5-(1-(2-oxa-6-azaspiro[3.3]heptan-6-yl)ethyl) 95yridine-2-yl)-N^6-(5-chloro-3-(methylsulfonyl)95yridine-2-yl)pyrimidine-4,6-diamine] | < 100 | ††† (†††: >0.39)
11 | Cc1cccc(Nc2cc(Nc3ccncc3S(C)(=O)=O)ncn2)n1 [Compound 60, N^4-(6-methylpyridin-2-yl)-N^6-(3-(methylsulfonyl)151yridine-4-yl) pyrimidine-4,6-diamine] | > 1000 | ††† (†††: >0.39)
12 | CS(=O)(=O)c1ccccc1Nc1cc(NC(=O)C2CC2)ncn1 [Compound 69, N^4-(cyclopropylcarbonyl)-N^6-(2-(methylsulfonyl)phenyl)pyrimidine-4,6-diamine] | > 1000 | ††† (†††: >0.39)
13 | COc1ccnc(Nc2cc(Nc3cccc(C)n3)ncn2)c1S(C)(=O)=O [Compound 65, N^4-(4-methoxy-3-(methylsulfonyl)155yridine-2-yl)-N^6-(6-methylpyridin-2-yl)pyrimidine-4,6-diamine] | > 1000 | ††† (†††: >0.39)
14 | C[C@@H](c1ccc(Nc2cc(Nc3ncccc3S(C)(=O)=O)ncn2)nc1)N1CC2(CCOCC2)C1 [Compound 31, I-N^4-(5-(1-(7-oxa-2-azaspiro[3.5]nonan-2-yl)ethyl)pyridine-2-yl)-N^6-(3-(methylsulfonyl)114yridine-2-yl)pyrimidine-4,6-diamine] | < 100 | †† (††: 0.37-0.39)
15 | CC(c1ccc(Nc2cc(Nc3ncc(C4COC4)cc3S(C)(=O)=O)ncn2)nc1)N1CC2(COC2)C1 (stereo not drawn) [Compound 78, N^4-(5-(1-(2-oxa-6-azaspiro[3.3]heptan-6-yl)ethyl)175yridine-2-yl)-N^6-(3-(methylsulfonyl)-5-(oxetan-3-yl)175yridine-2-yl)pyrimidine-4,6-diamine] | > 1000 | † (†: <0.37)
16 | CS(=O)(=O)c1cccnc1Nc1cc(Nc2ccc([C@@H](N3CC4(COC4)C3)C(F)(F)F)cn2)ncn1 [Compound 16, I-N^4-(3-(methylsulfonyl)98yridine-2-yl)-N^6-(5-(2,2,2-trifluoro-1-(2-oxa-6-azaspiro[3.3]heptan-6-yl)ethyl)98yridine-2-yl)pyrimidine-4,6-diamine] | < 100 | †† (††: 0.37-0.39)
17 | CC(c1ccc(Nc2cc(Nc3ncccc3S(C)(=O)=O)ncn2)nc1)N1CC2(CC(C(F)F)C2)C1 (stereo not drawn) [Compound 34, N^4-(5-(1-(6-(difluoromethyl)-2-azaspiro[3.3]heptan-2-yl)ethyl) 120yridine-2-yl)-N^6-(3-(methylsulfonyl)120yridine-2-yl)pyrimidine-4,6-diamine] | < 100 | †† (††: 0.37-0.39)
18 | C[C@@H](c1ccc(Nc2cc(Nc3ncccc3S(C)(=O)=O)ncn2)nc1)N1C[C@H]2COC[C@H]2C1 [Compound 25, N^4-(3-(methylsulfonyl)105yridine-2-yl)-N^6-(5-(1-((3aR,6aS)-tetrahydro-1H-furo[3,4-c]pyrrol-5 (3H)-yl)ethyl)105yridine-2-yl)pyrimidine-4,6-diamine] | < 100 | ††† (†††: >0.39)
19 | CC1(Nc2cnc(Nc3cc(Nc4ncccc4S(C)(=O)=O)ncn3)cn2)COC1 [Compound 74, N^4-(5-(3-methyloxetan-3-ylamino)pyrazin-2-yl)-N^6-(3-(methylsulfonyl)167yridine-2-yl)pyrimidine-4,6-diamine] | 100 to 1000 | ††† (†††: >0.39)
20 | COc1ccnc(Nc2cc(Nc3ccc(C(C)N4CC5(COC5)C4)cn3)ncn2)c1S(C)(=O)=O (stereo not drawn) [Compound 76, N^4-(5-(1-(2-oxa-6-azaspiro[3.3]heptan-6-yl)ethyl)170yridine-2-yl)-N^6-(4-methoxy-3-(methylsulfonyl)170yridine-2-yl)pyrimidine-4,6-diamine] | 100 to 1000 | † (†: <0.37)
21 | Cc1cc(Nc2cc(Nc3ncccc3S(C)(=O)=O)ncn2)nnc1C(C)N1CC2(COC2)C1 (stereo not drawn) [Compound 77, N^4-(6-(1-(2-oxa-6-azaspiro[3.3]heptan-6-yl)ethyl)-5-methylpyri 172yridi-3-yl)-N^6-(3-(methylsulfonyl)172yridine-2-yl)pyrimidine-4,6-diamine] | > 1000 | †† (††: 0.37-0.39)
